# Where two headings read alike, the source gives them in different places.
# Tests used:
# [1] = system: HCV genotype 1a (H77 strain) replicon in HUH-7 cells; assay: HCV replicon luciferase reporter assay, genotype 1a; type: cell-based; conditions: Hepatitis C virus, Huh-7, 72 h, HCV genotype 1a replicon luciferase, 3 days incubation
# In short: (§1)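 Replicon inhibition for both genotypes was measured as Renilla luciferase signal (EnduRen, 7.5 μM final, 2 h) after 3-day, 37° C exposure of replicon-bearing HUH-7 cells in 4% FCS DMEM, 0.5% DMSO. The 1b construct carries S1179I; the 1a H77 construct carries P1496L and S2204I. Twenty-point, 3-fold dilutions were fitted four-parametrically for EC50, and CC50 was taken from multiplexed Cell Titer-Blue.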
# [2] = system: HCV genotype 1b (Con1) replicon in HUH-7 cells; assay: HCV replicon luciferase reporter assay, genotype 1b; type: cell-based; conditions: Hepatitis C virus, Huh-7, 72 h, HCV genotype 1b replicon luciferase, 3 days incubation
# In short: as §1
Structure (SMILES),"EC50 ([1]; read-out: LE_1a (EC50, range))","EC50 ([2]; read-out: LE_1b (EC50, range))",EC50 ([1]; read-out: LE_1a (EC50)),EC50 ([2]; read-out: LE_1b (EC50))
"COc1cc2cc(-c3ccc(OC(C)C)cc3)nc(O[C@@H]3C[C@H]4C(=O)N[C@]5(C(=O)NS(=O)(=O)C6(C)CC6)C[C@H]5/C=C\CC[C@@H](C)C[C@@H](C)[C@H](NC(=O)OC(C)(C)C(F)(F)F)C(=O)N4C3)c2cc1F [Compound 3186, 1,1,1-trifluoro-2-methylpropan-2-yl((2R,6S,7R,9R,13aS,14aR,16aS,Z)-2-((7-fluoro-3-(4-isopropoxyphenyl)-6-methoxyisoquinolin-1-yl)oxy)-7,9-dimethyl-14a-(((1-methylcyclopropyl)sulfonyl)carbamoyl)-5,16-dioxo-1,2,3,5,6,7,8,9,10,11,13a,14,14a,15,16,16a-hexadecahydrocyclopropa[e]pyrrolo[1,2-a][1,4]diazacyclopentadecin-6-yl)carbamate]",< 5.46 nM,< 5.46 nM,,
"COc1cc2cc(-c3ccc(OC(C)C)cc3)nc(O[C@@H]3C[C@H]4C(=O)N[C@]5(C(=O)NS(=O)(=O)C6CC6)C[C@H]5/C=C\CC[C@H](C)C[C@@H](C)[C@H](NC(=O)O[C@@H]5C[C@@H]6C[C@@H]6C5)C(=O)N4C3)c2cc1F [Compound 3187, (1R,3r,5S)-bicyclo[3.1.0]hexan-3-yl((2R,6S,7R,9S,13aS,14aR,16aS,Z)-14a-((cyclopropylsulfonyl)carbamoyl)-2-((7-fluoro-3-(4-isopropoxyphenyl)-6-methoxyisoquinolin-1-yl)oxy)-7,9-dimethyl-5,16-dioxo-1,2,3,5,6,7,8,9,10,11,13a,14,14a,15,16,16a-hexadecahydrocyclopropa[e]pyrrolo[1,2-a][1,4]diazacyclopentadecin-6-yl)carbamate]",< 5.46 nM,< 5.46 nM,,
"COc1cc2cc(-c3ccc(OC(C)C)cc3)nc(O[C@@H]3C[C@H]4C(=O)N[C@]5(C(=O)NS(=O)(=O)C6CC6)C[C@H]5/C=C\CC[C@@H](C)C[C@@H](C)[C@H](NC(=O)O[C@@H]5C[C@@H]6C[C@@H]6C5)C(=O)N4C3)c2cc1F [Compound 3188, (1R,3r,5S)-bicyclo[3.1.0]hexan-3-yl((2R,6S,7R,9R,13aS,14aR,16aS,Z)-14a-((cyclopropylsulfonyl)carbamoyl)-2-((7-fluoro-3-(4-isopropoxyphenyl)-6-methoxyisoquinolin-1-yl)oxy)-7,9-dimethyl-5,16-dioxo-1,2,3,5,6,7,8,9,10,11,13a,14,14a,15,16,16a-hexadecahydrocyclopropa[e]pyrrolo[1,2-a][1,4]diazacyclopentadecin-6-yl)carbamate]",< 5.46 nM,< 5.46 nM,,
"COc1cc2cc(-c3ccc(OC(C)C)cc3)nc(O[C@@H]3C[C@H]4C(=O)N[C@]5(C(=O)NS(=O)(=O)C6CC6)C[C@H]5/C=C\CC[C@H](C)C[C@@H](C)[C@H](NC(=O)OC(C)(C)C(F)(F)F)C(=O)N4C3)c2cc1F [Compound 3189, 1,1,1-trifluoro-2-methylpropan-2-yl((2R,6S,7R,9S,13aS,14aR,16aS,Z)-14a-((cyclopropylsulfonyl)carbamoyl)-2-((7-fluoro-3-(4-isopropoxyphenyl)-6-methoxyisoquinolin-1-yl)oxy)-7,9-dimethyl-5,16-dioxo-1,2,3,5,6,7,8,9,10,11,13a,14,14a,15,16,16a-hexadecahydrocyclopropa[e]pyrrolo[1,2-a][1,4]diazacyclopentadecin-6-yl)carbamate]",4.82 to 103 nM,< 5.46 nM,,
"COc1cc2cc(-c3ccc(OC(C)C)cc3)nc(O[C@@H]3C[C@H]4C(=O)N[C@]5(C(=O)NS(=O)(=O)C6CC6)C[C@H]5/C=C\CC[C@@H](C)C[C@@H](C)[C@H](NC(=O)OC(C)(C)C(F)(F)F)C(=O)N4C3)c2cc1F [Compound 3190, 1,1,1-trifluoro-2-methylpropan-2-yl((2R,6S,7R,9R,13aS,14aR,16aS,Z)-14a-((cyclopropylsulfonyl)carbamoyl)-2-((7-fluoro-3-(4-isopropoxyphenyl)-6-methoxyisoquinolin-1-yl)oxy)-7,9-dimethyl-5,16-dioxo-1,2,3,5,6,7,8,9,10,11,13a,14,14a,15,16,16a-hexadecahydrocyclopropa[e]pyrrolo[1,2-a][1,4]diazacyclopentadecin-6-yl)carbamate]",< 5.46 nM,< 5.46 nM,,
"COc1cc2cc(-c3ccc(OC(C)C)cc3)nc(O[C@@H]3C[C@H]4C(=O)N[C@]5(C(=O)NS(=O)(=O)C6(C)CC6)C[C@H]5/C=C\CC[C@H](C)C[C@@H](C)[C@H](NC(=O)O[C@@H]5C[C@@H]6C[C@@H]6C5)C(=O)N4C3)c2cc1F [Compound 3191, (1R,3r,5S)-bicyclo[3.1.0]hexan-3-yl((2R,6S,7R,9S,13aS,14aR,16aS,Z)-2-((7-fluoro-3-(4-isopropoxyphenyl)-6-methoxyisoquinolin-1-yl)oxy)-7,9-dimethyl-14a-(((1-methylcyclopropyl)sulfonyl)carbamoyl)-5,16-dioxo-1,2,3,5,6,7,8,9,10,11,13a,14,14a,15,16,16a-hexadecahydrocyclopropa[e]pyrrolo[1,2-a][1,4]diazacyclopentadecin-6-yl)carbamate]",4.82 to 103 nM,< 5.46 nM,,
"COc1cc2cc(-c3ccc(OC(C)C)cc3)nc(O[C@@H]3C[C@H]4C(=O)N[C@]5(C(=O)NS(=O)(=O)C6(C)CC6)C[C@H]5/C=C\CC[C@@H](C)C[C@@H](C)[C@H](NC(=O)O[C@@H]5C[C@@H]6C[C@@H]6C5)C(=O)N4C3)c2cc1F [Compound 3192, (1R,3r,5S)-bicyclo[3.1.0]hexan-3-yl((2R,6S,7R,9R,13aS,14aR,16aS,Z)-2-((7-fluoro-3-(4-isopropoxyphenyl)-6-methoxyisoquinolin-1-yl)oxy)-7,9-dimethyl-14a-(((1-methylcyclopropyl)sulfonyl)carbamoyl)-5,16-dioxo-1,2,3,5,6,7,8,9,10,11,13a,14,14a,15,16,16a-hexadecahydrocyclopropa[e]pyrrolo[1,2-a][1,4]diazacyclopentadecin-6-yl)carbamate]",< 5.46 nM,< 5.46 nM,,
"CCOc1cc2cc(OC)ccc2c(O[C@@H]2C[C@H]3C(=O)N[C@]4(C(=O)NS(=O)(=O)C5(C)CC5)C[C@H]4/C=C\CC[C@H](C)C[C@@H](C)[C@H](NC(=O)OC(C)(C)C)C(=O)N3C2)n1 [Compound 3193, tert-butyl ((2R,6S,7R,9S,13aS,14aR,16aS,Z)-2-((3-ethoxy-6-methoxyisoquinolin-1-yl)oxy)-7,9-dimethyl-14a-(((1-methylcyclopropyl)sulfonyl)carbamoyl)-5,16-dioxo-1,2,3,5,6,7,8,9,10,11,13a,14,14a,15,16,16a-hexadecahydrocyclopropa[e]pyrrolo[1,2-a][1,4]diazacyclopentadecin-6-yl)carbamate]",1.01 to 5 nM,0.51 to 1 nM,,
"CCOc1cc2cc(OC)ccc2c(O[C@@H]2C[C@H]3C(=O)N[C@]4(C(=O)NS(=O)(=O)C5(C)CC5)C[C@H]4/C=C\CC[C@@H](C)C[C@@H](C)[C@H](NC(=O)OC(C)(C)C)C(=O)N3C2)n1 [Compound 3194, tert-butyl ((2R,6S,7R,9R,13aS,14aR,16aS,Z)-2-((3-ethoxy-6-methoxyisoquinolin-1-yl)oxy)-7,9-dimethyl-14a-(((1-methylcyclopropyl)sulfonyl)carbamoyl)-5,16-dioxo-1,2,3,5,6,7,8,9,10,11,13a,14,14a,15,16,16a-hexadecahydrocyclopropa[e]pyrrolo[1,2-a][1,4]diazacyclopentadecin-6-yl)carbamate]",0.51 to 1 nM,0.1 to 0.5 nM,0.62 nM,0.44 nM
"COc1ccc2c(O[C@@H]3C[C@H]4C(=O)N[C@]5(C(=O)NS(=O)(=O)C6(C)CC6)C[C@H]5/C=C\CC[C@H](C)C[C@@H](C)[C@H](NC(=O)OC(C)(C)C)C(=O)N4C3)nc(OC(C)C)cc2c1 [Compound 3195, tert-butyl ((2R,6S,7R,9S,13aS,14aR,16aS,Z)-2-((3-isopropoxy-6-methoxyisoquinolin-1-yl)oxy)-7,9-dimethyl-14a-(((1-methylcyclopropyl)sulfonyl)carbamoyl)-5,16-dioxo-1,2,3,5,6,7,8,9,10,11,13a,14,14a,15,16,16a-hexadecahydrocyclopropa[e]pyrrolo[1,2-a][1,4]diazacyclopentadecin-6-yl)carbamate]",1.01 to 5 nM,0.51 to 1 nM,,
"COc1ccc2c(O[C@@H]3C[C@H]4C(=O)N[C@]5(C(=O)NS(=O)(=O)C6(C)CC6)C[C@H]5/C=C\CC[C@@H](C)C[C@@H](C)[C@H](NC(=O)OC(C)(C)C)C(=O)N4C3)nc(OC(C)C)cc2c1 [Compound 3196, tert-butyl ((2R,6S,7R,9R,13aS,14aR,16aS,Z)-2-((3-isopropoxy-6-methoxyisoquinolin-1-yl)oxy)-7,9-dimethyl-14a-(((1-methylcyclopropyl)sulfonyl)carbamoyl)-5,16-dioxo-1,2,3,5,6,7,8,9,10,11,13a,14,14a,15,16,16a-hexadecahydrocyclopropa[e]pyrrolo[1,2-a][1,4]diazacyclopentadecin-6-yl)carbamate]",0.51 to 1 nM,0.1 to 0.5 nM,,
"CCOc1cc2cc(OC)ccc2c(O[C@@H]2C[C@H]3C(=O)N[C@]4(C(=O)NS(=O)(=O)C5(C)CC5)C[C@H]4/C=C\CC[C@@H](C)C[C@@H](C)[C@H](NC(=O)OC(C)(C)C(F)(F)F)C(=O)N3C2)n1 [Compound 3198, 1,1,1-trifluoro-2-methylpropan-2-yl((2R,6S,7R,9R,13aS,14aR,16aS,Z)-2-((3-ethoxy-6-methoxyisoquinolin-1-yl)oxy)-7,9-dimethyl-14a-(((1-methylcyclopropyl)sulfonyl)carbamoyl)-5,16-dioxo-1,2,3,5,6,7,8,9,10,11,13a,14,14a,15,16,16a-hexadecahydrocyclopropa[e]pyrrolo[1,2-a][1,4]diazacyclopentadecin-6-yl)carbamate]",0.51 to 1 nM,1.01 to 5 nM,,

# Reference: patent US9499550B2 (BRISTOL-MYERS SQUIBB COMPANY, priority 2012, dated 2016)
